Among the data in PubChem BioAssay AID328 (DTP/NCI, 2004) are T/C values, retold here.

The test has as its system BDF1 mice, P388 leukemia ip, median survival T/C. The experiment in a line: NCI In Vivo Anticancer Drug Screen. Data for tumor model P388 Leukemia (intraperitoneal) in B6D2F1 (BDF1) mice. Conditions: endpoint: median survival time, higher = longer survival. The procedure, abridged:
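Vehicle-dosed animals serve as the reference; survival of compound-dosed, tumour-implanted mice is divided by it.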

[1] abbreviates: dose: 50.0 mg/kg/injection, schedule: Q01DX009 (ip), vehicle: Klucel (hydroxypropylcellulose) (HPC).
Where [2] appears, read: dose: 50.0 mg/kg/injection, schedule: Q04DX003 (ip), vehicle: Klucel (hydroxypropylcellulose) (HPC).
Setting [3] is: dose: 100.0 mg/kg/injection, schedule: Q01DX009 (ip), vehicle: Klucel (hydroxypropylcellulose) (HPC).
The mark [4] stands for this setting: dose: 100.0 mg/kg/injection, schedule: Q04DX003 (ip), vehicle: Klucel (hydroxypropylcellulose) (HPC).
The mark [5] stands for this setting: dose: 200.0 mg/kg/injection, schedule: Q04DX003 (ip), vehicle: Klucel (hydroxypropylcellulose) (HPC).
Setting [6] is: dose: 100.0 mg/kg/injection, schedule: Q04DX003 (ip), vehicle: saline with Tween-80.
Where [7] appears, read: dose: 200.0 mg/kg/injection, schedule: Q04DX003 (ip), vehicle: saline with Tween-80.
The mark [8] stands for this setting: dose: 400.0 mg/kg/injection, schedule: Q04DX003 (ip), vehicle: saline with Tween-80.
[9] abbreviates: dose: 50.0 mg/kg/injection, schedule: Q04DX003 (ip), vehicle: saline with Tween-80.
The mark [10] stands for this setting: dose: 400.0 mg/kg/injection, schedule: Q04DX003 (ip), vehicle: Klucel (hydroxypropylcellulose) (HPC).
[11] abbreviates: dose: 100.0 mg/kg/injection, schedule: Q01DX009 (ip), vehicle: saline with Tween-80.
Where [12] appears, read: dose: 200.0 mg/kg/injection, schedule: Q01DX009 (ip), vehicle: saline with Tween-80.
Setting [13] is: dose: 400.0 mg/kg/injection, schedule: Q01DX009 (ip), vehicle: saline with Tween-80.

Where “and” joins values, the source holds several entries; their conditions need not be identical. Equal entries are not always repeated. Inconclusive results and toxic doses are left out.

Take `C=C(C)C12CC(COC(=O)c3ccccc3)C34OC5(OC1C3C1OC1(CO)C(O)C1(O)C(OC(=O)c3ccccc3)C(C)C(C(C)CCCCCCC5O)C14)O2` (stereo not drawn): the T/C runs as follows: (dose: 0.25 mg/kg/injection, schedule: Q01DX009 (ip), vehicle: saline) 113 % of control; (dose: 0.5 mg/kg/injection, schedule: Q01DX009 (ip), vehicle: saline) 122 % of control; (dose: 0.75 mg/kg/injection, schedule: Q01DX009 (ip), vehicle: saline) 150 % of control; (dose: 0.5 micrograms/kg/injection, schedule: Q01DX009 (ip), vehicle: saline + alcohol) 111 % of control; (dose: 0.8 micrograms/kg/injection, schedule: Q01DX009 (ip), vehicle: gum acacia) 100 % of control; (dose: 0.8 micrograms/kg/injection, schedule: Q01DX009 (ip), vehicle: saline + alcohol) 124 % of control. For the same compound, the T/C (dose: 0.8 micrograms/kg/injection, schedule: Q01DX009 (ip), vehicle: saline with Tween-80) was 162 % of control; the T/C (dose: 1.0 micrograms/kg/injection, schedule: Q01DX009 (ip), vehicle: saline + alcohol) was 108 % of control; the T/C (dose: 1.6 micrograms/kg/injection, schedule: Q01DX009 (ip), vehicle: saline + alcohol) was 238 % of control; the T/C (dose: 1.6 micrograms/kg/injection, schedule: Q01DX009 (ip), vehicle: saline with Tween-80) was 175 % of control; the T/C (dose: 2.0 micrograms/kg/injection, schedule: Q01DX009 (ip), vehicle: saline + alcohol) is 104 % of control; the T/C (dose: 3.1 micrograms/kg/injection, schedule: Q01DX009 (ip), vehicle: saline + alcohol) was 153 % of control. Further, the T/C is, setting by setting: (dose: 3.1 micrograms/kg/injection, schedule: Q01DX009 (ip), vehicle: saline with Tween-80) 175 % of control; (dose: 6.3 micrograms/kg/injection, schedule: Q01DX009 (ip), vehicle: gum acacia) 120 % of control; (dose: 6.3 micrograms/kg/injection, schedule: Q01DX009 (ip), vehicle: saline + alcohol) 175 % of control; (dose: 12.5 micrograms/kg/injection, schedule: Q01DX009 (ip), vehicle: gum acacia) 118 % of control; (dose: 12.5 micrograms/kg/injection, schedule: Q01DX009 (ip), vehicle: saline + alcohol) 179 % of control; (dose: 25.0 micrograms/kg/injection, schedule: Q01DX009 (ip), vehicle: gum acacia) 120 % of control. Also, under “dose: 50.0 micrograms/kg/injection, schedule: Q01DX009 (ip), vehicle: gum acacia”, the T/C is 124 % of control.
Regarding `OC1(C#CC2(O)CCCCC2)CCCCC1`, the T/C under setting [1] is 96 % of control; the T/C under setting [2] is 109 % of control; the T/C under setting [3] was 100 % of control; the T/C under setting [4] is 109 % of control; the T/C (dose: 200.0 mg/kg/injection, schedule: Q01DX009 (ip), vehicle: Klucel (hydroxypropylcellulose) (HPC)) is 96 % of control; the T/C under setting [5] was 100 % of control.
Consider `CCCNC(=O)Oc1c(C(C)C)ccc(C)c1Cl`, for which the T/C is, setting by setting: under setting [6], 100 % of control; under setting [7], 90 % of control; under setting [8], 104 % of control.
In the case of `CCN1C(=O)CSC1=S`, the T/C was 109 % of control (dose: 62.5 mg/kg/injection, schedule: Q01DX010 (ip), vehicle: saline); 109 % of control (dose: 125.0 mg/kg/injection, schedule: Q01DX010 (ip), vehicle: saline); 90 % of control (dose: 250.0 mg/kg/injection, schedule: Q01DX010 (ip), vehicle: saline).
For `CS(=O)(=O)OC[C@@H](O)[C@@H](O)COS(C)(=O)=O`, the T/C was 116 % of control (dose: 50.0 mg/kg/injection, schedule: Q01DX009 (ip), vehicle: saline) and 107 % of control (dose: 100.0 mg/kg/injection, schedule: Q01DX009 (ip), vehicle: saline).
Regarding `CN1CCOC1=Nc1ccc(Cl)cc1`, the T/C by setting is: under setting [9], 104 % of control; under setting [6], 86 % of control and 100 % of control; under setting [7], 95 % of control; under setting [8], 90 % of control.
With `O=[N+]([O-])c1ccc(/C=C/c2ccccn2)s1`, the T/C is, setting by setting: under setting [4], 100 % of control; under setting [5], 100 % of control; under setting [10], 100 % of control.
For the compound `Oc1ccc2ccccc2c1N=Nc1ccc(F)cc1`, the T/C under setting [11] was 100 % of control, the T/C under setting [12] was 90 % of control and the T/C under setting [13] is 95 % of control.
For the compound `C=CCC1(CC)C(=O)NC(=O)NC1=O`, the T/C under setting [9] is 91 % of control, the T/C under setting [6] is 91 % of control and the T/C under setting [7] is 91 % of control.
For `Cc1ccc(/C=C2\NC(=O)NC2=O)cc1`, the T/C was 106 % of control (dose: 25.0 mg/kg/injection, schedule: Q01DX009 (ip), vehicle: water); 106 % of control (dose: 50.0 mg/kg/injection, schedule: Q01DX009 (ip), vehicle: water); 94 % of control (dose: 50.0 mg/kg/injection, schedule: Q04DX003 (ip), vehicle: water); 95 % of control (dose: 100.0 mg/kg/injection, schedule: Q01DX009 (ip), vehicle: water); 106 % of control (dose: 100.0 mg/kg/injection, schedule: Q04DX003 (ip), vehicle: water); 98 % of control (dose: 200.0 mg/kg/injection, schedule: Q01DX009 (ip), vehicle: water). Also, the T/C is 103 % of control (dose: 200.0 mg/kg/injection, schedule: Q04DX003 (ip), vehicle: water); 94 % of control (dose: 400.0 mg/kg/injection, schedule: Q01DX009 (ip), vehicle: water); 97 % of control (dose: 400.0 mg/kg/injection, schedule: Q04DX003 (ip), vehicle: water).
As to `COc1ccccc1NC(=O)Oc1c(C(C)C)cccc1C(C)C`, the T/C by setting is: under setting [4], 95 % of control; under setting [5], 87 % of control; under setting [10], 100 % of control.
On to `Cc1cccc(Cl)c1NC(=O)CCCl`, for which the T/C is 90 % of control under setting [6], 90 % of control under setting [7] and 109 % of control under setting [8].
For the compound `COc1cc(C)c(Cl)c(C)c1C(C)=O`, the T/C is 104 % of control under setting [2], 95 % of control under setting [4] and 86 % of control under setting [5].
For `C=C1C=C(C)CC(C)(C)C1` (tested in a mixture with another compound), the T/C (dose: 100.0 mg/kg/injection, schedule: Q01DX009 (ip), vehicle: saline sonified) was 100 % of control; the T/C (dose: 200.0 mg/kg/injection, schedule: Q01DX009 (ip), vehicle: saline sonified) is 100 % of control; the T/C (dose: 400.0 mg/kg/injection, schedule: Q01DX009 (ip), vehicle: saline sonified) was 100 % of control.
Take `Cc1ccc(S(=O)(=O)N/N=C/C(=O)O)cc1`: the T/C is, setting by setting: (dose: 6.25 mg/kg/injection, schedule: Q01DX009 (ip), vehicle: Klucel (hydroxypropylcellulose) (HPC)) 113 % of control and 111 % of control; (dose: 6.25 mg/kg/injection, schedule: Q01DX009 (ip), vehicle: other) 112 % of control; (dose: 12.5 mg/kg/injection, schedule: Q01DX009 (ip), vehicle: Klucel (hydroxypropylcellulose) (HPC)) 124 % of control; under setting [1], 191 % of control and 169 % of control and 185 % of control; under setting [3], 90 % of control and 101 % of control; (dose: 400.0 mg/kg/injection, schedule: Q01DX009 (ip), vehicle: Klucel (hydroxypropylcellulose) (HPC)) 114 % of control.
`CCCCCCCCN(c1ccc(I)cc1)S(=O)(=O)c1ccc(C)cc1`: the T/C is 111 % of control under setting [9] and 111 % of control under setting [6].
On to `COC(=O)CCC(=O)CCC(C)C`, for which the T/C was 107 % of control (dose: 25.0 mg/kg/injection, schedule: Q01DX009 (ip), vehicle: saline with Tween-80); 103 % of control (dose: 50.0 mg/kg/injection, schedule: Q01DX009 (ip), vehicle: saline with Tween-80); 92 % of control under setting [11]; 111 % of control under setting [6]; 103 % of control under setting [12]; 122 % of control under setting [7]. The T/C under setting [13] was 92 % of control and the T/C under setting [8] is 116 % of control.
